Measurements reported in patent EP1285919A1, “C10 Carbonate substituted taxanes as antitumor agents” (Florida State University Research Foundation, Inc., priority 2001, dated 2003).

Test system: blood cell populations
Assay: Effect of oral treatment on blood cell populations, body weight and tumor weight in the MX-1 study
Type: in vivo, nu/nu mice
Conditions: Group 3: 73 mg/kg single oral bolus
Description: Antitumor compounds were administered orally in a study to investigate whether such formulations are efficacious against the MX-1 human breast carcinoma xenograft. The compounds were prepared in the following vehicle: 90% saline, 5% Cremophor, and 5% ethanol. Antitumor compound 1771 was formulated as described for Solution 1 in Example 6. Antitumor compound 1781 was formulated as described for Solution 2 in Example 6.
Female nu/nu mice (11-12 weeks of age; implanted subcutaneously with 1 mm^3 MX-1 human breast carcinoma fragments in the flank) were sorted into one control (n=10) and two treatment (n=6) groups (group mean tumor size of 47-49 mg). Treatment groups are detailed in Table 14.
In addition to survival and tumor regression responses, the effect of treatment on blood cell populations was assessed. The major effect of these antitumor compounds on blood cell populations was a marked reduction in the neutrophil cell number. Monocyte depletion correlated fairly well with neutrophil reduction for each antitumor compound. […] There was a correlation between antitumor activity and reduced neutrophil count. In general, toxicity (as determined by neutrophil depletion) and weight loss correlated with efficacy. Importantly, the toxicities observed with the very efficacious antitumor compounds were manageable and reversible; neutrophil count and body weight rebounded from their nadirs in just a few days. Table 15 summarized the weight reduction, neutrophil and monocyte measurements on Day 4, with tumor weight reduction calculated at Day 18: Table 15

In the case of `CCOC(=O)O[C@H]1C(=O)[C@@]2(C)[C@H]([C@H](OC(=O)c3ccccc3)[C@]3(O)C[C@H](OC(=O)[C@H](O)[C@H](C=C(C)C)NC(=O)OC(C)(C)C)C(C)=C1C3(C)C)[C@]1(OC(C)=O)CO[C@@H]1C[C@@H]2O` [Compound 1781], the “Monocytes (K/µL)” value (Day 4) is reported as 0.101 K/µL, the “Neutrophils (K/µL)” value (Day 4) is reported as 0.117 K/µL and the “% Reduction (Neutrophils)” value (Day 4, vs vehicle) is reported as 87.2%. For the same compound, the “Weight” value (MX-1 tumor weight, Day 18) was 275.3 mg and the “% Reduction (Weight)” value (tumor weight reduction calculated at Day 18, vs vehicle) was 68.3%.
